pIC50, pKi: −log10 of the molar value.
How the values were obtained:
[1] = AUC in rat interstitial fluid at 10 mg/kg, sc by transcortical microdialysis; format: ADME, organism-based; set-up: dose 10 mg/kg, route subcutaneous; conditions: in vivo
[2] = tested on: Brain; experiment: AUC in rat brain at 10 mg/kg, sc; format: ADME, organism-based; set-up: dose 10 mg/kg, route subcutaneous; conditions: in vivo
[3] = Apparent permeability of the compound; conditions: not told
[4] = Ratio of drug uptake in brain to plasma in rat; format: ADME; conditions: brain and plasma
[5] = Oral bioavailability in dog; format: ADME, organism-based, Canis lupus familiaris; conditions: in vivo
[6] = Solubility of the compound; format: physicochemical
[7] = Half life in dog; format: ADME, organism-based, Canis lupus familiaris; conditions: in vivo
[8] = tested on: Rattus norvegicus; experiment: AUC (0 to 1 hr) in rat at 0.5 mg/kg, iv; format: ADME, organism-based, Plasma; set-up: time < 1 hr, dose 0.5 mg/kg, route intravenous; conditions: in vivo
[9] = tested on: Gerbillinae; experiment: Antagonist activity at NK1 receptor in substance P-induced gerbil foot tapping model
[10] = Ratio of unbound drug in brain to plasma in rat; format: ADME; conditions: brain and plasma, read-out: K(p,uu,brain)
[11] = molecular target: Mu-type opioid receptor (Homo sapiens, UniProt P35372); experiment: biochemical; format: cell-based, 293T
Description: Displacement of [3H]naloxone from MOR (unknown origin) expressed in human 293T cells

[12] = Ratio of unbound drug in brain to plasma in mouse; format: ADME, organism-based; conditions: brain and plasma, read-out: K(p,uu,brain)
[13] = molecular target: Substance-P receptor (Homo sapiens, UniProt P25103); experiment: Antagonist activity at NK1 receptor (unknown origin)
Chain of Substance-P receptor (P25103 whole entry): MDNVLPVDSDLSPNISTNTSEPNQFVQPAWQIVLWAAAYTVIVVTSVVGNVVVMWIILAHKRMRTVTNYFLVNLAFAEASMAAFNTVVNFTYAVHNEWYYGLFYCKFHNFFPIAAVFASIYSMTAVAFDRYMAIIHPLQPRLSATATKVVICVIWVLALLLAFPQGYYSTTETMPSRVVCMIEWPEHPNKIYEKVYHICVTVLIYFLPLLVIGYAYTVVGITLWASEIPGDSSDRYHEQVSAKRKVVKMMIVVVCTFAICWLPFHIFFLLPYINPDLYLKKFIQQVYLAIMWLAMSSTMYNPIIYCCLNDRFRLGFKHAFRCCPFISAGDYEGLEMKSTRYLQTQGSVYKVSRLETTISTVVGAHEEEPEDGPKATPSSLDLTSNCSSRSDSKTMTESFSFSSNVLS

Chain of Mu-type opioid receptor (P35372 whole entry): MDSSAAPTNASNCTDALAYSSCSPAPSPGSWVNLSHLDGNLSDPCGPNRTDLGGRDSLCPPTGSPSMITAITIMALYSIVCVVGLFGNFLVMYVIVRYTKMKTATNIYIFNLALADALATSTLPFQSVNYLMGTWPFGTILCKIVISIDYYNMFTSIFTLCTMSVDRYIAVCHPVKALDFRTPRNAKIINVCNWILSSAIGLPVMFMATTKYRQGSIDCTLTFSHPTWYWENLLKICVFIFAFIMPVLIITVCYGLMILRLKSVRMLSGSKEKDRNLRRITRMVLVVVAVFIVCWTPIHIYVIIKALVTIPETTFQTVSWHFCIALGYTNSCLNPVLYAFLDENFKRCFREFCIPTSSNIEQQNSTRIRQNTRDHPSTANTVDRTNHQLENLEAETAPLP

SMILES | AUC [1] [µM/min] | AUC [2] [µM/min] | Kp [4] | AUC [8] [ng·h/g] | MED [9] [mg/kg] | other results
CN1CC[C@]23c4c5ccc(O)c4O[C@H]2[C@@H](O)C=C[C@H]3[C@H]1C5 [MORPHINE] | 79 | 186 | – | – | – | –
CC(C)(C)c1ccc(C(O)CCCN2CCC(C(O)(c3ccccc3)c3ccccc3)CC2)cc1 (centres undefined) [TERFENADINE] | – | – | – | – | – | Papp [3]: 28.5 ×10⁻⁶ cm/s
C[C@H](NC(=O)[C@@](C)(Cc1c[nH]c2ccccc12)NC(=O)OCc1cc2ccccc2o1)c1ccccc1 | – | – | 0.4 | 120 | 30 | bioavailability [5]: 60%; solubility [6]: < 2 µg/mL; half-life [7]: > 6 h
CN1CC[C@]23c4c5ccc(O)c4O[C@H]2[C@@H](O[C@@H]2O[C@H](C(=O)O)[C@@H](O)[C@H](O)[C@H]2O)C=C[C@H]3[C@H]1C5 [MORPHINE GLUCURONIDE] | 336 | 42 | 0.05 | – | – | Kp uu [10]: 0.56; pKi [11]: 7.20
COc1ccc(C(CN(C)C)C2(O)CCCCC2)cc1 (centres undefined) [VENLAFAXINE] | – | – | – | – | – | Kp uu [12]: 0.98
C[C@H](NC(=O)[C@](Cc1c[nH]c2ccccc12)(CN(C)C)NC(=O)OCc1cc2ccccc2o1)c1ccccc1 | – | – | 6 | 50 | 1 | pIC50 [13]: 9.30

From ChEMBL document CHEMBL3421561, “CNS drug design: balancing physicochemical properties for optimal brain exposure” (J Med Chem, 2015)
